Measured values as given in patent US20080045500A1, “Nerve Regeneration Stimulator” (priority 2004, published 2008).
“Also recorded” adds a separate entry of the source.

Key:
[1] = test system: neural stem cells (BrdU positive cells) in hippocampal dentate gyrus; experiment: Nerve regeneration in mouse hippocampal dentate gyrus: BrdU labelling, immunohistochemical count and GCL volume; assay type: in vivo
Method: C57BL/6 male SPF mice (8-week-old at the beginning of the experiments) purchased from Japan SLC, Inc. were used. Animals were subjected to experiments after acclimating in a breeding room under control at a temperature of 23±1° C. and illumination of 12 hours (7:00 to 19:00) for 5 days or longer. During breeding, animals had free access to solid food MF (Oriental Yeast Co., Ltd.) and water (tap water).
BrdU (Sigma) for labeling neural stem cells was used by dissolving in a phosphate buffer solution (PBS: Sigma) containing 0.007N HCl at a concentration of 5 mg/mL (Yoshimura et al., PNAS, 98, 5874-5879, 2001, Yoshimura et al., J. Clin. Invest., 112, 1202-1210, 2003). BrdU was intraperitoneally administered at a dose of 50 mg/kg (0.1 ml BrdU solution/10 g weight) for three times (every 4 hours).
Injectable distilled water was orally administered to animals of the vehicle control group.
The removed brain was sliced into coronal sections in a frozen state with a thickness of 40 μm using a sliding microtome (Leica, Model SM2000R, Nussloch). The sliced brain tissues were successively placed in 10 wells of a culture plate with a PBS solution containing sodium azide such that 10 sections were placed per well.
Immunostaining of the brain tissues were carried out by flotation (Yoshimura et al., PNAS, 98, 5874-5879, 2001, Yoshimura et al., J. Clin. Invest., 112, 1202-1210, 2003). Peroxidase method (ABC system, Vector Laboratories Inc.) was used for immunohistochemical detection of BrdU (Yoshimura et al., PNAS, 98, 5874-5879, 2001, Yoshimura et al., J. Clin. Invest., 112, 1202-1210, 2003). As a primary antibody to BrdU, rat anti-BrdU antibody (400-fold-diluted, Accurate Chemical & Scientific Corporation) was used. As a secondary antibody, rabbit IgG biotinylated antibody (200-fold-diluted, Vector Laboratories Inc.) was used
For quantitation, four hippocampal sections (intervals of sections being 400 μm, four sections between −1.4 mm to −2.6 mm from bregma) were used for each individual. All of the BrdU positive cells present in a subgranular zone (SGZ) and a granule cell layer (GCL) of the hippocampal dentate gyrus were determined. SGZ was defined as an area with a depth of 20 μm (a size corresponding to two cells) just below the GCL (on the side of hylus). […] The GCL area in each hippocampal section was determined as a cresyl violet positive GCL area using an image analyzing software (NIH, image ver. 1.60).
A volume of GCL (GCLV) was determined as a GCL volume in left hemisphere between −1.4 mm to −2.6 mm from bregma (Cavalieri technique). The number of BrdU positive cells in GCLV was calculated by multiplying the number of BrdU positive cells in the four hippocampal sections by 10. […]
All of the quantitative values are indicated in mean ±standard error (n=8 for each group).

[2] = test system: neural stem cells (BrdU positive cells) in hippocampal dentate gyrus; experiment: Nerve regeneration in rat hippocampal dentate gyrus: BrdU labelling, immunohistochemical count and GCL volume; assay type: in vivo; conditions: for GCL volume / Number of BrdU positive cells per hippocampus: SD rats, mean ± standard error, n=11; for Number of BrdU positive cells per hippocampus: vehicle 5490 ± 179, * p<0.05
Method: SD male SPF rats (6-week-old at the beginning of the experiments) purchased from Japan SLC, Inc. were bred under the same conditions as the mice in Example 2. Animals were subjected to experiments after acclimating for 5 days or longer following purchase.
BrdU (Sigma) for labeling neural stem cells was dissolved in PBS containing 0.014N HCl at a concentration of 10 mg/mL. BrdU was intraperitoneally administered at a dose of 50 mg/kg for three times (every 4 hours).
Injectable distilled water was orally administered at the same volume to animals in the vehicle control group.
The removed brain was sliced into sections as described in Example 2 for use in immunohistochemical studies.
Immunostaining of the brain tissues were carried out as described in Example 2.
For quantitation, four hippocampal sections (thickness of 40 μm, intervals of sections being 400 μm, four sections between −3.6 mm to −4.8 mm from bregma) were used for each individual. BrdU positive cells were counted in the same manner as Example 2. The GCL volume in each hippocampal section and the total number of BrdU positive cells in each hippocampal dentate gyrus were also determined as described in Example 2.
In Table 2, “*” indicates p<0.05, in comparison to the vehicle control group.

[3] = test system: rat neural progenitor cells; experiment: Intracellular calcium concentration of fetal rat neural progenitor cells (Fluo-3); assay type: cell-based
Method: Cerebrums were isolated from fetuses obtained from 14.5 days pregnant SD female rats (Japan SLC, Inc.). Cells were dispersed by pipetting the tissue in cold L-15 medium. These cells were cultured in a suspension containing 20 ng/ml human basic fibroblast growth factor (bFGF) in serum-free D-MEM/F-12 medium (supplemented with B-27, N2 (both from Invitrogen) and gentamicin beforehand). The rat neural progenitor cells are known to form a neurosphere in this medium. After 5 to 7 days, the neurosphere was collected and pipetted to isolate the rat neural progenitor cells, followed by passage culture using the medium described above.
The neural progenitor cells were isolated from the neurosphere that was collected a day before the experiment and suspended in the bFGF-free medium otherwise same as described above. After the number of cells was counted, 50,000 cells each were suspended in 100 μL of the medium described above and dispensed into a 96-flat bottom culture plate. Intracellular Ca^++ concentration was determined using a commercially available kit (Calcium Kit-Fluo-3, Dojindo laboratories) according to the attached instruction. To some of the wells, atropine (muscarine receptor antagonist) was added to 25 μmol/L and cultured at 37° C. for 30 minutes beforehand. […]

[4] = test system: hippocampus of PTSD patients; conditions: administration to PTSD patients, reported by Bremner 2002; cited from earlier work
[5] = 0.5 mg/kg orally once a day for 28 days
[6] = 2 mg/kg orally once a day for 28 days

COc1cc2c(cc1OC)C(=O)C(CC1CCN(Cc3ccccc3)CC1)C2.Cl (stereo not drawn) [Donepezil, 1-benzyl-4-[(5,6-dimethoxy-1-indanone)-2-yl]methylpiperidine hydrochloride]
Number of BrdU positive cells per hippocampus ([1]; C57BL/6 mice, 1 mg/kg orally once a day for 14 days, mean ± standard error, n=8, vehicle 1091 ± 56, * p<0.05): 1528 ± 137*
Effect on the volume of hippocampal nerve cell layer (GCL), in words ([1]; mice, 1 mg/kg orally, 14 days): no effect
Number of BrdU positive cells compared to vehicle group (in words) ([1]; mice, 1 mg/kg orally, 14 days, statistically significant, hydrochloride, 1 mg/kg): higher; also recorded: increased
GCL volume [2, 5]: 1.27 ± 0.04 mm^3
Number of BrdU positive cells per hippocampus [2, 5]: 6880 ± 436*
GCL volume [2, 6]: 1.35 ± 0.04 mm^3
Number of BrdU positive cells per hippocampus [2, 6]: 6694 ± 357*
Influence on the volume of rat hippocampal nerve cell layer (GCL), in words ([2]; rats, 0.5 and 2 mg/kg orally, 28 days): no influence
Number of BrdU positive cells per hippocampus compared to vehicle group (in words) ([2]; rats, each donepezil group (0.5 and 2 mg/kg orally, 28 days), statistically significant): higher

CN1[C@@H]2CC[C@H]1C[C@@H](OC(=O)C(CO)c1ccccc1)C2 (stereo partly drawn) [atropine]
Antagonism of the acetylcholine/carbachol induced intracellular Ca++ increase ([3]; 25 μmol/L pretreatment for 30 minutes): completely antagonized; also recorded: completely inhibited

C[N+](C)(C)CCOC(N)=O [carbachol]
Change of intracellular Ca++ concentration on stimulation ([3]; 25 μmol/L agonist, Fluo-3 fluorescence): increases

Fc1ccc([C@@H]2CCNC[C@H]2COc2ccc3c(c2)OCO3)cc1 [paroxetine]
Volume of hippocampus of PTSD patients [4]: increase
